Holding throughout (test): Kinase selectivity, scanMAX Kinase assay panel (DiscoverX), % control at 1 uM
Type in all cases: binding

In assay [1] the target is T1, scanMAX Kinase assay panel (Homo sapiens, UniProt Q13177).
T1 construct: purchased DiscoverX
Conditions: PAK2; 1 uM; read-out: Percent Control (%). Summed up: (§1)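 Binding across the scanMAX kinase panel was tested at 1 uM compound. % control = (compound − positive control)/(negative control − positive control) × 100; below 35 counted as active.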

For assay [2], the target named is T2, scanMAX Kinase assay panel (Homo sapiens, UniProt Q16832).
T2 construct: purchased DiscoverX
T2 sequence (Q16832 22-855): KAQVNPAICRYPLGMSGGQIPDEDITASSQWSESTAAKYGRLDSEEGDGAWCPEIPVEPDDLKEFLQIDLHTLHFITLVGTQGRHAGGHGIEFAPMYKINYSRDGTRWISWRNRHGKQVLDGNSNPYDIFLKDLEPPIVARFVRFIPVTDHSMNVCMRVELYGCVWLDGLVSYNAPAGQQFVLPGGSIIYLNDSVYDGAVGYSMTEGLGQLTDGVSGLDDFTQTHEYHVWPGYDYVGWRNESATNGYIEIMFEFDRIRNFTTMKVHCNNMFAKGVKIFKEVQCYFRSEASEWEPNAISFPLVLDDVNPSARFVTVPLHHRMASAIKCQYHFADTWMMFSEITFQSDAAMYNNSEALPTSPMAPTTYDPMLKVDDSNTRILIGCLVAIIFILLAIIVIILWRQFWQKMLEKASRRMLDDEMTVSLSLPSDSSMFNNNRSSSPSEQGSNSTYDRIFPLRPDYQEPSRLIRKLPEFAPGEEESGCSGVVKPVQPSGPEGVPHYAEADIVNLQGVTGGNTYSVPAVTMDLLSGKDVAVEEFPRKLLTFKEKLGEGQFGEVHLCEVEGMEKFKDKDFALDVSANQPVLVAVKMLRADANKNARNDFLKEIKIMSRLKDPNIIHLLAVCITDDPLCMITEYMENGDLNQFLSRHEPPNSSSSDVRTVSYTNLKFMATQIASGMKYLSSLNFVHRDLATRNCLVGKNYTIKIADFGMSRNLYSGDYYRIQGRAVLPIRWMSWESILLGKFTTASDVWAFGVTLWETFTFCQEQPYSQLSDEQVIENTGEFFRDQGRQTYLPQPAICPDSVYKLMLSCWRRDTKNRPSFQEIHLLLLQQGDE
Conditions: DDR2; 1 uM; read-out: Percent Control (%). Summed up:
as §1

The target of assay [3] is T3, scanMAX Kinase assay panel (Homo sapiens, UniProt Q12851).
T3 construct: purchased DiscoverX
T3 sequence (Q12851 1-820): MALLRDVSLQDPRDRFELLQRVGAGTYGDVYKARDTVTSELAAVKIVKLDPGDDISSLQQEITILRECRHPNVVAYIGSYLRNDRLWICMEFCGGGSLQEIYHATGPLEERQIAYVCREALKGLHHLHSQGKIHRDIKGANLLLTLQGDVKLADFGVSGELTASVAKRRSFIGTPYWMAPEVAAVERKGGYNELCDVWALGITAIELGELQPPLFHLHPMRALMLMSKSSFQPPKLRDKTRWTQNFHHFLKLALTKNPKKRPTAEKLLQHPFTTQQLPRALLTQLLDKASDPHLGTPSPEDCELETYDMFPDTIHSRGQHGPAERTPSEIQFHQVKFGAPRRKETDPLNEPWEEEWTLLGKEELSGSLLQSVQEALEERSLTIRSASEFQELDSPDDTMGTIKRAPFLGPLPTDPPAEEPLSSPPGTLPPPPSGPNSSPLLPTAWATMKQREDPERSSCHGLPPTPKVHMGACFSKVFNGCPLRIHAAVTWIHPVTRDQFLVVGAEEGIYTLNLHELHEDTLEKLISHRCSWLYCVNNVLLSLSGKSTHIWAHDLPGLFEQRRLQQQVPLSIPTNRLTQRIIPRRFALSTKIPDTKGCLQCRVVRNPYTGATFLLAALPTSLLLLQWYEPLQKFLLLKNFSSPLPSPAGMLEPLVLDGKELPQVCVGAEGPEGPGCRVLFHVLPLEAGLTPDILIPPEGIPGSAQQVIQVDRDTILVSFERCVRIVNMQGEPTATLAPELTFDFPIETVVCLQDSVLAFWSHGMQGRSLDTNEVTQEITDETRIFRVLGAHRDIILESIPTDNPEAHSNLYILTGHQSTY
Conditions: MAP4K2; 1 uM; read-out: Percent Control (%). Put shortly: as §1

Assay [4] concerns the target T4, scanMAX Kinase assay panel (Homo sapiens, UniProt P22607, G697C).
T4 construct: purchased DiscoverX
Conditions: FGFR3 (G697C); 1 uM; read-out: Percent Control (%). Summed up: as §1

Assay [5] concerns the target T5, scanMAX Kinase assay panel (Homo sapiens, UniProt O95747).
T5 construct: purchased DiscoverX
Conditions: OSR1; 1 uM; read-out: Percent Control (%). Summed up:
as §1

Assay [6] deals with T6, scanMAX Kinase assay panel (Homo sapiens, UniProt Q86UX6).
T6 construct: purchased DiscoverX
Conditions: YANK3; 1 uM; read-out: Percent Control (%). Summed up: as §1

Assay [7] deals with T7, scanMAX Kinase assay panel (Homo sapiens, UniProt Q96GD4).
T7 construct: purchased DiscoverX
Conditions: AURKB; 1 uM; read-out: Percent Control (%). Summed up:
as §1

For assay [8], the target named is T8, scanMAX Kinase assay panel (Homo sapiens, UniProt Q92918).
T8 construct: purchased DiscoverX
Conditions: HPK1; 1 uM; read-out: Percent Control (%). Put shortly: as §1

Assay [9] deals with T9, scanMAX Kinase assay panel (Homo sapiens, UniProt Q9H2G2).
T9 construct: purchased DiscoverX
Conditions: SLK; 1 uM; read-out: Percent Control (%). Summed up: as §1

T9 sequence (Q9H2G2 whole entry): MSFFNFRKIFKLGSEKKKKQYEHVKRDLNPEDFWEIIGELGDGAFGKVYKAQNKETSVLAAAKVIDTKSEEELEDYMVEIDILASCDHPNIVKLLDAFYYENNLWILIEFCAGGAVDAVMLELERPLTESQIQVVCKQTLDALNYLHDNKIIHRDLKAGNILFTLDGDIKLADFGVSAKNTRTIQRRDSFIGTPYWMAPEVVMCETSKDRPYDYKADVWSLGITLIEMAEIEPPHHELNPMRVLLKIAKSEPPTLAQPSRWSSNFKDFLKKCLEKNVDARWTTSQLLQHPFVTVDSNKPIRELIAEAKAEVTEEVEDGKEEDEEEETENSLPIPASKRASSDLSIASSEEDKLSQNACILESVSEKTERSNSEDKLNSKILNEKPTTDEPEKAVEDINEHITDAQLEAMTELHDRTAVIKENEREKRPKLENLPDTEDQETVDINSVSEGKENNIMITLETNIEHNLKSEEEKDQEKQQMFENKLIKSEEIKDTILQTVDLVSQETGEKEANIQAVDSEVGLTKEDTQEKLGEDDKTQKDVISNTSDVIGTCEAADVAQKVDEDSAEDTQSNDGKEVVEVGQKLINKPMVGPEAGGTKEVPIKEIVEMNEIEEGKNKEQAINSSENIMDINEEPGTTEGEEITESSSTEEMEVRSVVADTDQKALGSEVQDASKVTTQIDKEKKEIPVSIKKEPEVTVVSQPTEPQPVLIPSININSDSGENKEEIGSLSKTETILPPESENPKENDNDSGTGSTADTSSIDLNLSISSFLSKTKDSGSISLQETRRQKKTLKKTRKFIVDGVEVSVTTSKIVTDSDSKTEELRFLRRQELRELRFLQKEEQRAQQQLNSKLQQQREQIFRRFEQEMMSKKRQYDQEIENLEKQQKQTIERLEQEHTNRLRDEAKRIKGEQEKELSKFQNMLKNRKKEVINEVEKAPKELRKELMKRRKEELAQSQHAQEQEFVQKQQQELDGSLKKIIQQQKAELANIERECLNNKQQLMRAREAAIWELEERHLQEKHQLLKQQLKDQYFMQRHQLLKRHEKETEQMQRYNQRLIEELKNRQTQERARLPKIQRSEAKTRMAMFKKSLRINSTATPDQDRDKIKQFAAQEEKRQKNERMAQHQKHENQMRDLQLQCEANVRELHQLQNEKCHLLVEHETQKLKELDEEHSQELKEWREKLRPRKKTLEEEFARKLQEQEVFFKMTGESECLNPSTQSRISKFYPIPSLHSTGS
T6 sequence (Q86UX6 whole entry): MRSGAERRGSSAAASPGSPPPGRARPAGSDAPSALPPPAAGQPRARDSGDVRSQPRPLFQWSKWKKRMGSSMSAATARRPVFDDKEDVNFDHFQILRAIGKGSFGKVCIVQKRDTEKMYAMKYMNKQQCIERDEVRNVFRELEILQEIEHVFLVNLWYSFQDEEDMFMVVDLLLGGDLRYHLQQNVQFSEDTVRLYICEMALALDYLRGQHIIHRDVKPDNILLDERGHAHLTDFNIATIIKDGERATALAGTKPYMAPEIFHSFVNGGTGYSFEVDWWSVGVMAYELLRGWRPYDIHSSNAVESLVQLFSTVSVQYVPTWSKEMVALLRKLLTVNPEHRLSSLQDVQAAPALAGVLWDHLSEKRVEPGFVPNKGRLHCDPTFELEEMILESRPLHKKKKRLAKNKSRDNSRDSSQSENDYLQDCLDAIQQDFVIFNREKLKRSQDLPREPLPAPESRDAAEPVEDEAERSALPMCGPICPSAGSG
T5 sequence (O95747 whole entry): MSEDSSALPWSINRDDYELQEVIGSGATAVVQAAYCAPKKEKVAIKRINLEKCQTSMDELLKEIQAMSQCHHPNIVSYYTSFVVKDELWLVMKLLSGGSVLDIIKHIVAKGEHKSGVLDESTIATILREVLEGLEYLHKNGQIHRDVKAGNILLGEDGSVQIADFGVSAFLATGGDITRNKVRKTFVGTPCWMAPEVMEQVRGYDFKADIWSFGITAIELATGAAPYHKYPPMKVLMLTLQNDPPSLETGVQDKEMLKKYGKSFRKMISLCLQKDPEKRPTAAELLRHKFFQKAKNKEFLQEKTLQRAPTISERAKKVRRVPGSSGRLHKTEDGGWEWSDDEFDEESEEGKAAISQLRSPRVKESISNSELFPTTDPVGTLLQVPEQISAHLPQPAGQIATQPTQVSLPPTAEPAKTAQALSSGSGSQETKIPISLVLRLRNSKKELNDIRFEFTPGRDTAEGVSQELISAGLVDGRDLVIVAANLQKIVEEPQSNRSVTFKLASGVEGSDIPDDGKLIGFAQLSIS
T4 sequence (P22607 23-806 G697C): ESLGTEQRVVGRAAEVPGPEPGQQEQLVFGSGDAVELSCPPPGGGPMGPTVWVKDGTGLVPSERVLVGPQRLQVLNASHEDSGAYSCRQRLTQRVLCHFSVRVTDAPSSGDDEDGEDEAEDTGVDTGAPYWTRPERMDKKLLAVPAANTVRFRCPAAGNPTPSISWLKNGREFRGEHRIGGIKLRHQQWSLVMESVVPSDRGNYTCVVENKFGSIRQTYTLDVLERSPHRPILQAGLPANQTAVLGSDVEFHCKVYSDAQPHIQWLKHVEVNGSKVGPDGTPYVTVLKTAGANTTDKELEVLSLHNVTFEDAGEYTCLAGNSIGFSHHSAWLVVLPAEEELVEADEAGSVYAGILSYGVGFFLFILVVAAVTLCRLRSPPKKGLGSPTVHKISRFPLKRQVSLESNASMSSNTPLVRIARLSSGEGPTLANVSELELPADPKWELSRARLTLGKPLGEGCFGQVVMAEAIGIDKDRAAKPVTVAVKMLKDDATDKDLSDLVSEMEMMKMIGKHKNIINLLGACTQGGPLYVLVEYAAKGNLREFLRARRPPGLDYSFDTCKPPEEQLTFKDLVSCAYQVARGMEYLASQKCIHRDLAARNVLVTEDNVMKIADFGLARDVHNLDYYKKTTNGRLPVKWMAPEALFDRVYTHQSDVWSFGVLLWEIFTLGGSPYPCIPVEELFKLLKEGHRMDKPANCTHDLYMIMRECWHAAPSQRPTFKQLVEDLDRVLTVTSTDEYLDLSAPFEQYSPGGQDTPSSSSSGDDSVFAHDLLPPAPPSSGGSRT
T8 sequence (Q92918 whole entry): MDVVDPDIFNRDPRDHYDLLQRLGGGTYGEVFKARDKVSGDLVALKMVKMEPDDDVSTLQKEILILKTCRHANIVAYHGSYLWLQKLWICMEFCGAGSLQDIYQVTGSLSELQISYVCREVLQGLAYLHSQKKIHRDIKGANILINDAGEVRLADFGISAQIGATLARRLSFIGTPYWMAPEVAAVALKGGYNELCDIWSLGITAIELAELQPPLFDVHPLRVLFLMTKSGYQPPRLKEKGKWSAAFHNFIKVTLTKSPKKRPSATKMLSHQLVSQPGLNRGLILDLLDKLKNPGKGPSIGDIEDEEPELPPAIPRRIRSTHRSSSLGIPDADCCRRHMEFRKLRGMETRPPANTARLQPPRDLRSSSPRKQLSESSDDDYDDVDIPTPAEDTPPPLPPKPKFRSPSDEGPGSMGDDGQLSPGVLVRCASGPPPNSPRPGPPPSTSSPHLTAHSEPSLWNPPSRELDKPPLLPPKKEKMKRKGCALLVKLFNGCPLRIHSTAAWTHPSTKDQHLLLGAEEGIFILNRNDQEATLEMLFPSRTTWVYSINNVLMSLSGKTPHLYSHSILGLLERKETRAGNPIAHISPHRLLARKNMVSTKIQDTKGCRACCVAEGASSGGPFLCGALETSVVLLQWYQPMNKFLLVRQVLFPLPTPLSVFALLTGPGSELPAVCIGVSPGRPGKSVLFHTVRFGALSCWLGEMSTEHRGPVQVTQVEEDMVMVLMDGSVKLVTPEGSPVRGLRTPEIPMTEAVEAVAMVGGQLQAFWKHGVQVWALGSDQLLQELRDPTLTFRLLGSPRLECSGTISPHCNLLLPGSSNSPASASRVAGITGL
T1 sequence (Q13177 whole entry): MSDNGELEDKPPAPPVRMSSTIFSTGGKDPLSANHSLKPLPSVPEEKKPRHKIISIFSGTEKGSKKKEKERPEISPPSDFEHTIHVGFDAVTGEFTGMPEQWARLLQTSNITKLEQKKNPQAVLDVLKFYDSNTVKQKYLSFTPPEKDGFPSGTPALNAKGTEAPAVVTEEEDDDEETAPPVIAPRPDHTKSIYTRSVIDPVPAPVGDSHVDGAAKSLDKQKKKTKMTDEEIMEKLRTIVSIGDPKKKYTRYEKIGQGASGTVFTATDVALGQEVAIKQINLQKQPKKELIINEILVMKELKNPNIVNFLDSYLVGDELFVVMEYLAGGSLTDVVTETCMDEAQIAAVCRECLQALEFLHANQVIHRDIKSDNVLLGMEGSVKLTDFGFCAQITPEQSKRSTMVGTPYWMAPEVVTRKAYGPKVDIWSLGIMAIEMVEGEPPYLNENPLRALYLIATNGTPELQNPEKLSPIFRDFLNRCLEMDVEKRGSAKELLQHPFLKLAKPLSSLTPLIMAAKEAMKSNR
T7 sequence (Q96GD4 whole entry): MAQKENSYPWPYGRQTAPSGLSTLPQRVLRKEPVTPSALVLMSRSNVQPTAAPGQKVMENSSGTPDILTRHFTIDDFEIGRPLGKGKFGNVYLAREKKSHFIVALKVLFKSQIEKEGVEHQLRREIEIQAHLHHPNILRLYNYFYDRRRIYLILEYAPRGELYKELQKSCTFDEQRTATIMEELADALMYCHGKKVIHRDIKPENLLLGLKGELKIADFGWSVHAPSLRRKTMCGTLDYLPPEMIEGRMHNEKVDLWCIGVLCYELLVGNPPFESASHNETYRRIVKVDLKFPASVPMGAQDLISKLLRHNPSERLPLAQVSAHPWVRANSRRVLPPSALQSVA

On to `Cc1ccc(C(=O)Nc2ccc(CN3CCN(C)CC3)c(C(F)(F)F)c2)cc1C#Cc1cnc2c(Nc3cnn(C)c3)cccn12` [Example 1, 4-methyl-3-((8-((1-methyl-1H-pyrazol-4-yl)amino)imidazo[1,2-a]pyridin-3-yl)ethynyl)-N-(4-((4-methylpiperazin-1-yl)methyl)-3-(trifluoromethyl)phenyl)benzamide], for which the remaining binding at 1 µM in [1] came out at 64%; in assay [2] it was 0%; in assay [3] it was 1%; in assay [4], 3%; in assay [5], 88%; in assay [6] it was 74%. Moreover, the remaining binding at 1 µM in assay [7] amounted to 3%; in assay [8], 1%; in assay [9] it was 0%.

Regarding `Cc1cn(-c2cc(NC(=O)c3ccc(C)c(C#Cc4cnc5c(Nc6cnn(C)c6)cccn45)c3)cc(C(F)(F)F)c2)cn1` [Example 12, 4-methyl-N-(3-(4-methyl-1H-imidazol-1-yl)-5-(trifluoromethyl)phenyl)-3-((8-((1-methyl-1H-pyrazol-4-yl)amino)imidazo[1,2-a]pyridin-3-yl)ethynyl)benzamide], the remaining binding at 1 µM in [1] is 54%; in assay [2], 7%; in [3], 98%; in [4] it was 34%; in assay [5] it was 100%; in assay [6], 81%. Further, the results for the remaining binding at 1 µM in assay [7], in assay [8] and in assay [9] were 56%, 5% and 5%, respectively.

As for `Cc1ccc(NC(=O)C2(C(=O)Nc3ccc(F)cc3)CC2)cc1C#Cc1cnc2c(Nc3cnn(C(C)C)c3)cccn12` [Example 78], the remaining binding at 1 µM in [1] amounted to 100%; in assay [2], 3%; in [3] it was 100%; in [4] it was 96%; in assay [5] it was 100%; in assay [6], 99%. The remaining binding at 1 µM in [7] amounted to 34%; in [8], 78%; in [9], 11%.

The values above are taken from patent US10870647B2, “Imidazopyridine derivative, method for preparing same, and pharmaceutical composition containing same as active ingredient for preventing or treating cancer” (DAEGU-GYEONGBUK MEDICAL INNOVATION FOUNDATION, priority 2016, dated 2020).
